Consider 1 compound from US20090053168A1, “TREATMENTS OF B-CELL PROLIFERATIVE DISORDERS” (priority 2007, published 2009).

One assay deals with MM.1S cells. The assay is described as follows: Anti-proliferation assay (ATPLite, 72 h), MM.1S.
A further assay relates to EJM cells. The experiment in a line: Anti-proliferation assay (ATPLite, 72 h), EJM. The class given is cell-based. Conditions: in combination with CGS-21680.
In a further assay the test system is H929 cells. The assay is described as follows: Anti-proliferation assay (ATPLite, 72 h), H929. The class given is cell-based. Conditions: combination with dexamethasone; Loewe-based Synergy Score; 72 h.
A further assay deals with SU-DHL6 DLBCL cells. The assay is described as follows: Anti-proliferation assay (ATPLite, 72 h), SU-DHL6. The class given is cell-based. Conditions: in combination with CGS-21680.
The next assay has as its system OPM2 cells. The experiment in a line: Anti-proliferation assay (ATPLite, 72 h), OPM2. Conditions: in combination with CGS-21680; OPM-8. The class given is cell-based, human.
A further assay concerns RPMI-8226 cells. The assay is described as follows: Anti-proliferation assay (ATPLite, 72 h), RPMI-8226. The class given is cell-based. The conditions noted are these: combination with dexamethasone; Loewe-based Synergy Score; 72 h.
The test system of another assay is ANBL-6 cells. The experiment in a line: Anti-proliferation assay (ATPLite, 72 h), ANBL-6. The class given is cell-based. The conditions noted are these: in combination with CGS-21680.
For another assay, the system named is KSM-12-PE cells. The assay is described as follows: Anti-proliferation assay (ATPLite, 72 h), KSM-12-PE. The class given is cell-based. Conditions: in combination with CGS-21680; KSM-12-PE.
A further assay deals with Karpas 422 DLBCL cells. The assay is described as follows: Anti-proliferation assay (ATPLite, 72 h), Karpas 422. The class given is cell-based. The conditions noted are these: in combination with CGS-21680.
For another assay, the system named is MOLP-8 cells. The assay is described as follows: Anti-proliferation assay (ATPLite, 72 h), MOLP-8. The class given is cell-based. Conditions: in combination with CGS-21680.
Another assay concerns OCI-ly10 DLBCL cells. The experiment in a line: Anti-proliferation assay (ATPLite, 72 h), OCI-ly10. The class given is cell-based. The conditions noted are these: in combination with CGS-21680.
The mark [1] stands for this setting: Homo sapiens, MM1.S, read-out: percent inhibition of cell proliferation.

Each structure is given as a SMILES string.

`COc1cc2c(cc1OC)-c1cc(=Nc3c(C)cc(C)cc3C)n(C)c(=O)n1CC2` [Trequinsin, 2,3,6,7-tetrahydro-9,10-dimethoxy-3-methyl-2-((2,4,6-trimethylphenyl)imino)-4H-pyrimido(6,1-a)isoquinolin-4-one]: in the assay on MM.1S cells (setting [1]), the inhibition at 0.00462 µM is 10%. Further, the inhibition at 0.0139 µM with MM.1S cells (setting [1]) was found to be 1.4%. For the same compound, the inhibition at 0.0416 µM with MM.1S cells (setting [1]) turned out to be 5.5%. Besides, the inhibition at 0.374 µM in the assay with MM.1S cells (setting [1]) is -1.6%. Moreover, the inhibition at 1.12 µM in the assay on MM.1S cells (setting [1]) is -6.1%. The inhibition at 3.37 µM with MM.1S cells (setting [1]) was found to be 11%. The inhibition at 10.1 µM in the assay with MM.1S cells (setting [1]) was 33%. Moreover, in the assay on MM.1S cells (combination with dexamethasone, Loewe-based Synergy Score, 72 h), the “Synergy score with dexamethasone, MM.1S” value worked out at 3.21. The synergy score in the assay on MM.1S cells (in combination with CGS-21680, MM.1S) amounted to 6.71; in the assay with EJM cells it was 4.81; with SU-DHL6 DLBCL cells it was 0.92; in the assay on OPM2 cells, 4.74; in the assay on ANBL-6 cells it was 4.55; with KSM-12-PE cells, 2.44. The synergy score stood at 2.11 with Karpas 422 DLBCL cells, 4.7 in the assay with MOLP-8 cells and 1.64 in the assay with OCI-ly10 DLBCL cells. The “Synergy score with dexamethasone, H929” value in the assay on H929 cells stood at 2.68. Besides, in the assay on RPMI-8226 cells, the “Synergy score with dexamethasone, RPMI-8226” value is listed as 5.76.
